{
  "source": "PubChem BioAssay AID449764",
  "about": "(Southern Research Specialized Biocontainment Screening …, 2010)",
  "data": [
    {"system": "Mycobacterium tuberculosis H37Rv growth inhibition, no glycerol", "experiment": "Mycobacterium tuberculosis H37Rv growth inhibition, no glycerol, confirmatory dose response (AID 449764);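 note: growth read after 7 days of incubation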", "settings": "measured here: IC90 growth inhibition", "units": {"IC90": "µM"}, "values": [
      {"smiles": "Cc1cccc(C2=N/C(=C\\c3cccs3)C(=O)O2)c1", "IC90": "> 100"},
      {"smiles": "Cc1ccc(-n2nc3c(N4CCC(C(=O)NCc5ccccc5C)CC4)nnc(C)c3c2C)cc1", "IC90": "> 100"},
      {"smiles": "CCN(CC)S(=O)(=O)c1ccc(/C=C/C(=O)OCC#N)cc1", "IC90": 47.2},
      {"smiles": "O=c1[nH]c(=O)n(C2CCCO2)cc1F", "note": "(configuration not stated)", "IC90": "> 100"},
      {"smiles": "Clc1ccc(-c2cc3ccccc3nc2N2CCCC2)cc1", "IC90": "> 100"},
      {"smiles": "O=C1c2ccccc2S(=O)(=O)c2cc(C(=O)N3CCN(c4c(Cl)cncc4Cl)CC3)ccc21", "IC90": 52.2},
      {"smiles": "CCOC(=O)N1CCc2c(sc(NC(=O)c3ccc(Cl)s3)c2C(N)=O)C1", "IC90": 19.1},
      {"smiles": "CCOC(=O)N1CCC(N2Cc3cccc(C(=O)Nc4ccc(N(CC)CC)cc4C)c3C2=O)CC1", "IC90": "> 100"},
      {"smiles": "C/C(=C1/C(=O)N(c2ccc([N+](=O)[O-])cc2)N=C1c1ccccc1)N(C)C", "IC90": 37},
      {"smiles": "C(=N\\Nc1nc(-c2ccccc2)cs1)/c1ccncc1", "IC90": 79.9},
      {"smiles": "O=C1CC(/C=C/c2ccc(Cl)cc2)=Nc2ccccc2N1", "IC90": 14.2},
      {"smiles": "CSc1nc2nc3c(c(=O)n2[nH]1)CCCC3", "IC90": "> 100"},
      {"smiles": "Cc1ccc(C(=O)n2c(N)nc3ccccc32)cc1", "IC90": "> 100"},
      {"smiles": "O=C(c1ccc([N+](=O)[O-])s1)N1CCN(c2ccc(C(F)(F)F)cn2)CC1", "IC90": 17.5},
      {"smiles": "CCOc1ccc(Nc2cc(C)nc(-n3nc(C)cc3C)n2)cc1", "IC90": 4.89},
      {"smiles": "CCOC(=O)CSc1nn(-c2ccccc2)c(=S)s1", "IC90": 6.9},
      {"smiles": "CCOC(=O)c1[nH]c(CN2CCN(c3ccc(OC)cc3)CC2)c(C(=O)OCC)c1C", "IC90": 48.6},
      {"smiles": "CCCCCCOC(=O)C(C#N)c1nc2ccccc2nc1N1CCN(CC)CC1", "note": "(configuration not stated)", "IC90": 32.3},
      {"smiles": "CSC(=S)NCc1cccnc1", "IC90": 41.9},
      {"smiles": "c1cc2c3c(cccc3c1)NC1(CCC3(CC1)Nc1cccc4cccc(c14)N3)N2", "IC90": "> 100"},
      {"smiles": "Brc1ccc2c(c1)C(OC1CN3CCC1CC3)c1ccccc1CS2", "note": "(configuration not stated)", "IC90": 36.4},
      {"smiles": "COc1cc(NC(C)CCCN)c2ncccc2c1", "note": "(configuration not stated)", "IC90": 14.3},
      {"smiles": "Cc1cc(C(=O)CCl)c(C)n1-c1cccc([N+](=O)[O-])c1", "IC90": 6.49},
      {"smiles": "CC1CCc2c(sc3ncnc(NCCCOC(C)C)c23)C1", "note": "(configuration not stated)", "IC90": 74.2},
      {"smiles": "CC1CCc2c(C(=O)Nc3nccs3)csc2C1", "note": "(configuration not stated)", "IC90": 80.3},
      {"smiles": "CCCCOc1ccc(C(=O)N/N=C/c2ccc(OCCN3CCCCC3)c(OC)c2)cc1", "IC90": 47.8},
      {"smiles": "COc1ccc(-n2cc(CNCCc3cscn3)c(-c3ccccc3Cl)n2)cc1", "IC90": 35.9},
      {"smiles": "O=C(NCC(c1cccs1)N1CCOCC1)c1cc([N+](=O)[O-])cc([N+](=O)[O-])c1", "note": "(configuration not stated)", "IC90": 1.5},
      {"smiles": "O=C(NCc1ccccn1)C(=O)Nc1nc(C23CC4CC(CC(C4)C2)C3)cs1", "IC90": 14.7},
      {"smiles": "Cc1ccc(C(=O)OCc2nnc(-c3ccccc3)o2)s1", "IC90": 32.2},
      {"smiles": "CC1CCN(C(=O)C2CCN(c3nnc(-n4cccc4)s3)CC2)CC1", "IC90": 6.13},
      {"smiles": "Brc1ccc(-c2nc3ncccn3c2Nc2ccc3c(c2)OCCO3)o1", "IC90": "> 100"},
      {"smiles": "Cn1c(-c2c(N)n(CCc3ccccc3)c3nc4ccccc4nc23)nc2ccccc21", "IC90": "> 100"},
      {"smiles": "CC1=CC(=O)C(C(C)C)=C/C1=N/OS(=O)(=O)c1ccccc1", "IC90": 7.65},
      {"smiles": "O=c1oc2ccccc2c2c1nc(C(F)(F)F)n2-c1ccccc1", "IC90": 23.8},
      {"smiles": "O=C(NCCN1CCN(c2cccc(Cl)c2)CC1)c1ccc(CSc2nc3ccncc3[nH]2)cc1", "IC90": 32.1},
      {"smiles": "CCOC(=O)Cn1c(-c2ccccc2)ccc(C#N)c1=O", "IC90": "> 50"},
      {"smiles": "C/C(=N\\Nc1ccc([N+](=O)[O-])cc1)c1cccc(N)c1", "IC90": 88.9},
      {"smiles": "COC(=O)CCn1c(C)cc(C(=O)COc2ccccc2C(N)=O)c1C", "IC90": 14.8},
      {"smiles": "CS/C(Nc1cc(Cl)ccc1Cl)=C(/C#N)C(=O)c1ccco1", "IC90": "> 100"},
      {"smiles": "O=[N+]([O-])c1ccc(N2CCCCC2)s1", "IC90": 18.5},
      {"smiles": "CCc1cc(C(=O)NNC(=O)CCl)sc1C", "IC90": 7.55},
      {"smiles": "Cn1c(=O)c(C(=O)NNC(=O)c2cccc(Cl)c2)c(O)c2ccccc21", "IC90": 3.14},
      {"smiles": "Cc1cc(C)nc(-n2nc(C)cc2NC(=O)CN2CCC(C)CC2)n1", "IC90": 35.3},
      {"smiles": "CC(C)(O)C#Cc1ccc(C(=O)Nc2ccc3c(c2)OCO3)s1", "IC90": "> 100"},
      {"smiles": "Cc1cc(NC2CCCCC2)nc(-c2ccccc2O)n1", "IC90": 50.2},
      {"smiles": "COC(=O)CSc1nnc(CNc2ccc(Cl)cc2)n1-c1ccccc1", "IC90": 25.3},
      {"smiles": "Cc1ccc2c(c1)c1ncnc(N3CCc4ccccc4C3)c1n2C", "IC90": "> 100"},
      {"smiles": "Cc1cc(N/N=C/c2ccccc2[N+](=O)[O-])nc(-n2nc(C)cc2C)n1", "IC90": 5.14},
      {"smiles": "CN(CCCC1CCCC1)C(=O)CCc1nnc(-c2ccccc2)o1", "IC90": 28},
      {"smiles": "O=C1NCC(O)=C1C=Nc1ccccc1O", "IC90": 7.6},
      {"smiles": "CCCCCCCCCCOC(=O)Cn1c(COc2ccc(Cl)cc2)[n+](C)c2ccccc21", "IC90": 17.5},
      {"smiles": "O=C(OCc1nc2ccccc2s1)c1ccc(Br)o1", "IC90": "> 50"},
      {"smiles": "O=C(CSc1cccc[n+]1[O-])c1cccs1", "IC90": 42.2},
      {"smiles": "COC(=O)CSc1ncnc2c1sc1nc3c(cc12)COC(C)(C)C3", "IC90": 8.03},
      {"smiles": "CCn1c2ccccc2c2cc(CN3CCN(Cc4cc(OC)ccc4O)CC3)ccc21", "IC90": 23.4},
      {"smiles": "Cc1ccn2nc(S(=O)(=O)Nc3c(F)cccc3F)nc2n1", "IC90": 11.5},
      {"smiles": "CCn1c(C)nc2cc(C(=O)OC(C(F)(F)C(F)F)C(F)(F)C(F)F)ccc21", "IC90": 25.8},
      {"smiles": "COc1cc2nc(N3CCN(c4cc(C)ccc4C)CC3)nc(N)c2cc1OC", "IC90": 18.7},
      {"smiles": "CCN1CCN(Cc2ccc(NC(=O)c3cc(NC(=O)c4cncc(-c5cccs5)c4)cc(OC)c3)cc2C(F)(F)F)CC1", "IC90": 16.5},
      {"smiles": "Cn1c(=O)n(Cc2ccccc2)c(=O)c2c1nc1n2CCCN1C1CCCCC1", "IC90": "> 100"},
      {"smiles": "NNC(=S)Nc1ccccc1Cl", "IC90": 93},
      {"smiles": "Oc1ccccc1N=Cc1ccc[nH]1", "IC90": 6.04},
      {"smiles": "CCCCNC(=S)N/N=C/c1cccc(OCC)c1O", "IC90": 11.9},
      {"smiles": "CNC(C)C#Cc1ccc2oc3cc(C)c(C)cc3c(=O)c2c1", "note": "(configuration not stated)", "IC90": 35.5},
      {"smiles": "O=c1[nH]c(CSc2cccc[n+]2[O-])nc2ccccc12", "IC90": 99.6},
      {"smiles": "CCCn1nnnc1NC(=O)c1ccc(C)cc1Cl", "IC90": 33.1}
    ]}
  ]
}
